Experimental findings from patent publication US20240116985A1, “STAPLED PEPTIDES AND METHODS THEREOF” (priority 2020, published 2024) are described below.

Values after ≈ are worked out from the molar mass of the structure shown. Like-named read-outs stand apart in the source and are kept apart here.

For series [1], the target named is T1, full-length beta-Catenin (Uniprot ID P35222) (Homo sapiens, UniProt P35222).
T1 construct: 10 nM full-length beta-Catenin (Uniprot ID P35222)
T1 sequence (P35222 1-781): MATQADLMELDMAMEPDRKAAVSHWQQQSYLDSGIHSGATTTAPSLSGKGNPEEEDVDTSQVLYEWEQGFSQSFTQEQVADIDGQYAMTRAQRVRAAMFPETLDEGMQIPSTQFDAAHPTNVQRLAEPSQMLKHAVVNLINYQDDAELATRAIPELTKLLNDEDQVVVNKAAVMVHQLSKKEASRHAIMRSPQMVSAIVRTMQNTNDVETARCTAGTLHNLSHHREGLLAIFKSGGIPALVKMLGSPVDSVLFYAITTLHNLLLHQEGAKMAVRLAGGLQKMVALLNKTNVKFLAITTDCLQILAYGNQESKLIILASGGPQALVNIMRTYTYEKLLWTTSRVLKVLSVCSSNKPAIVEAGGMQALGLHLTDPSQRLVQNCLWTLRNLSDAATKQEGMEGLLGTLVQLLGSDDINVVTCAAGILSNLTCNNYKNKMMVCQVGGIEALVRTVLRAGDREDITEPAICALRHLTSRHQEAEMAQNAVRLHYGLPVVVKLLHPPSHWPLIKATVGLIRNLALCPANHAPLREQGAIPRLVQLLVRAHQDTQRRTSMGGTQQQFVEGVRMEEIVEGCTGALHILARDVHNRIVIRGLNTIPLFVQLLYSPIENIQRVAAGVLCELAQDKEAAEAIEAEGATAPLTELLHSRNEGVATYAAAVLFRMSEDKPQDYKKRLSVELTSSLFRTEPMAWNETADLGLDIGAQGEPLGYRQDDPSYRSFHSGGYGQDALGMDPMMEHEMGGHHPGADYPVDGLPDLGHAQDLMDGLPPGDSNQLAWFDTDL
Description: Fluorescence polarization IC50 (beta-catenin / 5FAM-TCF4 10-53 competition). In kind it is binding.

The nature of the next series: CHI Log D procedure. The following applies: pH 7.4. The class given is physicochemical.
A short description of another series: Solubility in PBS. The class given is physicochemical. The procedure, abridged: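 Read-out is the HPLC peak area of the supernatant from ultracentrifuged PBS solution, scaled against a 50 μM peptide DMSO injection; value reported as [(PBS area)/(DMSO area)]*50 uM.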
Where [2] appears, read: fluorescence polarization, beta-catenin, read-out: FP EC50.

In the case of `CC(=O)N1CCC[C@]12CC=CCCCC1(CCCC=CCCCOC(=O)N3CC[C@@](C(=O)N[C@@H](Cc4ccsc4)C(=O)N[C@@H](Cc4csc5ccccc45)C(=O)N[C@H](C(N)=O)[C@@H](C)O)(C3)NC(=O)[C@H](CC(N)=O)NC(=O)[C@H](Cc3ccccc3)NC(=O)[C@H](C)NC(=O)[C@H](C)NC(=O)[C@H](CN(CC(=O)O)CC(F)(F)F)NC(=O)[C@H](CC(=O)O)NC1=O)NC(=O)[C@H](CC(C)(C)C)NC(=O)[C@H](CC(=O)O)NC2=O` (stereo partly drawn) [I-943, Ac-PL3-Asp-Npg-B5-Asp-TfeGA-Ala-Ala-Phe-Asn-PyrS2-3Thi-BztA-Thr-NH2], the IC50 in series [1] (setting [2]) and in series [1] (read-out: beta-Catenin FP IC50) was 1990 nM each time. The “CHI Log D” value in “CHI Log D procedure” amounted to 2.071. For the same compound, in the series “Solubility in PBS”, the “Solubility” value worked out at 49 µM (≈ 98.1 µg/mL).

As to `CC(=O)N1CCC[C@]12CC=CCCCC1(CCCC=CCCCOC(=O)N3CC[C@@](C(=O)N[C@@H](Cc4ccsc4)C(=O)N[C@@H](Cc4csc5ccccc45)C(=O)N[C@@H](CC(C)C)C(N)=O)(C3)NC(=O)[C@H](CC(N)=O)NC(=O)[C@H](Cc3ccccc3)NC(=O)[C@H](C)NC(=O)[C@H](C)NC(=O)[C@H](CN(CC(=O)O)CC(F)(F)F)NC(=O)[C@H](CC(=O)O)NC1=O)NC(=O)[C@H](CC(C)(C)C)NC(=O)[C@H](CC(=O)O)NC2=O` (stereo partly drawn) [I-946, Ac-PL3-Asp-Npg-B5-Asp-TfeGA-Ala-Ala-Phe-Asn-PyrS2-3Thi-BztA-Leu-NH2], the IC50 in series [1] (setting [2]) and in series [1] (read-out: beta-Catenin FP IC50) was 798 nM throughout. The “CHI Log D” value in the series “CHI Log D procedure” amounted to 2.209. Moreover, in the series “Solubility in PBS”, the “Solubility” value was determined as 47 µM (≈ 94.7 µg/mL).

As for `CC(=O)N1CCC[C@]12CC=CCCCC1(CCCC=CCCCOC(=O)N3CC[C@@](C(=O)N[C@@H](Cc4ccsc4)C(=O)N[C@@H](Cc4csc5ccccc45)C(=O)N[C@@H](CC(C)C)C(N)=O)(C3)NC(=O)[C@H](CC(N)=O)NC(=O)[C@H](Cc3ccccc3)NC(=O)[C@H](C)NC(=O)[C@H](C)NC(=O)[C@H](CN(CC(=O)O)CC(F)(F)F)NC(=O)[C@H](CC(=O)O)NC1=O)NC(=O)[C@H](CC(C)(C)C)NC(=O)[C@H](CC(=O)O)NC2=O` (stereo partly drawn) [I-947, Ac-PL3-Asp-Npg-B5-Asp-TfeGA-Ala-Ala-Phe-Asn-PyrS2-3Thi-BztA-Leu-NH2], the IC50 in series [1] (setting [2]) and in series [1] (read-out: beta-Catenin FP IC50) was 1050 nM each time. Also, in the series “CHI Log D procedure”, the “CHI Log D” value came out at 2.271. In the series “Solubility in PBS”, the “Solubility” value stood at 47 µM (≈ 94.7 µg/mL).

As to `CC(=O)N1CCC[C@]12CC=CCCCC1(CCCC=CCCCOC(=O)N3CC[C@@](C(=O)N[C@@H](Cc4ccsc4)C(=O)N[C@@H](Cc4csc5ccccc45)C(=O)N[C@@H](C(N)=O)[C@H](C)O)(C3)NC(=O)[C@H](CC(N)=O)NC(=O)[C@H](Cc3ccccc3)NC(=O)[C@H](C)NC(=O)[C@H](C)NC(=O)[C@H](CN(CC(=O)O)CC(F)(F)F)NC(=O)[C@H](CC(=O)O)NC1=O)NC(=O)[C@H](CC(C)(C)C)NC(=O)[C@H](CC(=O)O)NC2=O` (stereo partly drawn) [I-948, Ac-PL3-Asp-Npg-B5-Asp-TfeGA-Ala-Ala-Phe-Asn-PyrS2-3Thi-BztA-dThr-NH2], the IC50 in series [1] (setting [2]) and in series [1] (read-out: beta-Catenin FP IC50) was 2430 nM in each case. The “CHI Log D” value in the series “CHI Log D procedure” is 2.013. In addition, the “Solubility” value in “Solubility in PBS” is 47 µM (≈ 94.1 µg/mL).

`CC(=O)N1CCC[C@]12CC=CCCCC1(CCCC=CCCCOC(=O)N3CC[C@@](C(=O)N[C@@H](Cc4ccsc4)C(=O)N[C@@H](Cc4csc5ccccc45)C(=O)N[C@@H](C(N)=O)[C@H](C)O)(C3)NC(=O)[C@H](CC(N)=O)NC(=O)[C@H](Cc3ccccc3)NC(=O)[C@H](C)NC(=O)[C@H](C)NC(=O)[C@H](CN(CC(=O)O)CC(F)(F)F)NC(=O)[C@H](CC(=O)O)NC1=O)NC(=O)[C@H](CC(C)(C)C)NC(=O)[C@H](CC(=O)O)NC2=O` (stereo partly drawn) [I-949, Ac-PL3-Asp-Npg-B5-Asp-TfeGA-Ala-Ala-Phe-Asn-PyrS2-3Thi-BztA-dThr-NH2]: the IC50 in series [1] (setting [2]) and in series [1] (read-out: beta-Catenin FP IC50) was 2260 nM in each case. Moreover, the “CHI Log D” value in the series “CHI Log D procedure” was found to be 2.086. Also, the “Solubility” value in “Solubility in PBS” turned out to be 49 µM (≈ 98.1 µg/mL).

As for `CC(=O)N1CCC[C@]12CC=CCCCC1(CCCC=CCCCOC(=O)N3CC[C@@](C(=O)N[C@@H](Cc4ccsc4)C(=O)N[C@@H](Cc4csc5ccccc45)C(=O)N[C@@H](CCO)C(N)=O)(C3)NC(=O)[C@H](CC(N)=O)NC(=O)[C@H](Cc3ccccc3)NC(=O)[C@H](C)NC(=O)[C@H](C)NC(=O)[C@H](CN(CC(=O)O)CC(F)(F)F)NC(=O)[C@H](CC(=O)O)NC1=O)NC(=O)[C@H](CC(C)(C)C)NC(=O)[C@H](CC(=O)O)NC2=O` (stereo partly drawn) [I-950, Ac-PL3-Asp-Npg-B5-Asp-TfeGA-Ala-Ala-Phe-Asn-PyrS2-3Thi-BztA-Hse-NH2], the IC50 in series [1] (setting [2]) and in series [1] (read-out: beta-Catenin FP IC50) was 1630 nM each time. Besides, in the series “CHI Log D procedure”, the “CHI Log D” value stood at 1.9. The “Solubility” value in the series “Solubility in PBS” was 46 µM (≈ 92.1 µg/mL).

In the case of `CC(=O)N1CCC[C@]12CC=CCCCC1(CCCC=CCCCOC(=O)N3CC[C@@](C(=O)N[C@@H](Cc4ccsc4)C(=O)N[C@@H](Cc4csc5ccccc45)C(=O)N[C@@H](CCO)C(N)=O)(C3)NC(=O)[C@H](CC(N)=O)NC(=O)[C@H](Cc3ccccc3)NC(=O)[C@H](C)NC(=O)[C@H](C)NC(=O)[C@H](CN(CC(=O)O)CC(F)(F)F)NC(=O)[C@H](CC(=O)O)NC1=O)NC(=O)[C@H](CC(C)(C)C)NC(=O)[C@H](CC(=O)O)NC2=O` (stereo partly drawn) [I-951, Ac-PL3-Asp-Npg-B5-Asp-TfeGA-Ala-Ala-Phe-Asn-PyrS2-3Thi-BztA-Hse-NH2], the IC50 in series [1] (setting [2]) and in series [1] (read-out: beta-Catenin FP IC50) was 1470 nM throughout. The “CHI Log D” value in “CHI Log D procedure” turned out to be 1.971. For the same compound, the “Solubility” value in “Solubility in PBS” was found to be 47 µM (≈ 94.1 µg/mL).

Take `CC(=O)N1CCC[C@]12CC=CCCCC1(CCCC=CCCCOC(=O)N3CC[C@@](C(=O)N[C@@H](Cc4ccsc4)C(=O)N[C@@H](Cc4csc5ccccc45)C(=O)N[C@@H](Cc4ccc(O)cc4)C(N)=O)(C3)NC(=O)[C@H](CC(N)=O)NC(=O)[C@H](Cc3ccccc3)NC(=O)[C@H](C)NC(=O)[C@H](C)NC(=O)[C@H](CN(CC(=O)O)CC(F)(F)F)NC(=O)[C@H](CC(=O)O)NC1=O)NC(=O)[C@H](CC(C)(C)C)NC(=O)[C@H](CC(=O)O)NC2=O` (stereo partly drawn) [I-953, Ac-PL3-Asp-Npg-B5-Asp-TfeGA-Ala-Ala-Phe-Asn-PyrS2-3Thi-BztA-Tyr-NH2]: the IC50 in series [1] (setting [2]) and in series [1] (read-out: beta-Catenin FP IC50) was 1460 nM each time. Further, the “CHI Log D” value in “CHI Log D procedure” is given as 2.04. Further, the “Solubility” value in “Solubility in PBS” is 47 µM (≈ 97 µg/mL).

As for `CC(=O)N1CCC[C@]12CC=CCCCC1(CCCC=CCCCOC(=O)N3CC[C@@](C(=O)N[C@@H](Cc4ccsc4)C(=O)N[C@@H](Cc4csc5ccccc45)C(=O)N[C@@H](CO)C(N)=O)(C3)NC(=O)[C@H](CO)NC(=O)[C@H](Cc3ccccc3)NC(=O)[C@H](C)NC(=O)[C@H](C)NC(=O)[C@H](CN(CC(=O)O)CC(F)(F)F)NC(=O)[C@H](CC(=O)O)NC1=O)NC(=O)[C@H](CC(C)(C)C)NC(=O)[C@H](CC(=O)O)NC2=O` (stereo partly drawn) [I-954, Ac-PL3-Asp-Npg-B5-Asp-TfeGA-Ala-Ala-Phe-Ser-PyrS2-3Thi-BztA-Ser-NH2], the IC50 in series [1] (setting [2]) and in series [1] (read-out: beta-Catenin FP IC50) was 900 nM throughout. Also, the “CHI Log D” value in “CHI Log D procedure” is 1.918. The “Solubility” value in “Solubility in PBS” is 46 µM (≈ 90.2 µg/mL).

For `CC(=O)N1CCC[C@]12CC=CCCCC1(CCCC=CCCCOC(=O)N3CC[C@@](C(=O)N[C@@H](Cc4ccsc4)C(=O)N[C@@H](Cc4csc5ccccc45)C(=O)N[C@@H](CO)C(N)=O)(C3)NC(=O)[C@H](CO)NC(=O)[C@H](Cc3ccccc3)NC(=O)[C@H](C)NC(=O)[C@H](C)NC(=O)[C@H](CN(CC(=O)O)CC(F)(F)F)NC(=O)[C@H](CC(=O)O)NC1=O)NC(=O)[C@H](CC(C)(C)C)NC(=O)[C@H](CC(=O)O)NC2=O` (stereo partly drawn) [I-955, Ac-PL3-Asp-Npg-B5-Asp-TfeGA-Ala-Ala-Phe-Ser-PyrS2-3Thi-BztA-Ser-NH2], the IC50 in series [1] (setting [2]) and in series [1] (read-out: beta-Catenin FP IC50) was 1200 nM in each case. Moreover, the “CHI Log D” value in “CHI Log D procedure” came to 1.998. Besides, the “Solubility” value in “Solubility in PBS” is 45 µM (≈ 88.3 µg/mL).

Regarding `CC(=O)N1CCC[C@]12CC=CCCCC1(CCCC=CCCCOC(=O)N3CC[C@@](C(=O)N[C@@H](Cc4ccsc4)C(=O)N[C@@H](Cc4csc5ccccc45)C(=O)N[C@@H](CO)C(N)=O)(C3)NC(=O)[C@H]([C@@H](C)O)NC(=O)[C@H](Cc3ccccc3)NC(=O)[C@H](C)NC(=O)[C@H](C)NC(=O)[C@H](CN(CC(=O)O)CC(F)(F)F)NC(=O)[C@H](CC(=O)O)NC1=O)NC(=O)[C@H](CC(C)(C)C)NC(=O)[C@H](CC(=O)O)NC2=O` (stereo partly drawn) [I-956, Ac-PL3-Asp-Npg-B5-Asp-TfeGA-Ala-Ala-Phe-Thr-PyrS2-3Thi-BztA-Ser-NH2], the IC50 in series [1] (setting [2]) and in series [1] (read-out: beta-Catenin FP IC50) was 1090 nM throughout. The “CHI Log D” value in the series “CHI Log D procedure” amounted to 1.875. Further, the “Solubility” value in the series “Solubility in PBS” is 46 µM (≈ 90.9 µg/mL).
